This note sets out measurements from US20230257374A1, “NOVEL KRAS G12C PROTEIN INHIBITOR, PREPARATION METHOD THEREFOR, AND USE THEREOF” (INNOVENT BIOLOGICS (SUZHOU) CO., LTD., priority 2019, published 2023).

As a reminder, the half-life is the time needed for the level to fall by half in the phase considered. By microsomal CLint is commonly meant a measure of how fast metabolising enzymes remove a compound, apart from limits set by blood flow. Broadly, the IC50 is the concentration at which inhibition is half-maximal.

The nature of series [1]: in vitro. To be noted: microsomes, pH 7.4. As for the experimental part: To examine the in vitro metabolic stability of the test compounds in liver microsomes of different species, representative compounds were selected, and their stability was evaluated by measuring the concentration of the test compounds in the incubation system using LC/MS/MS and calculating their intrinsic clearance in the microsome system.
The method is specifically as follows: each compound was first dissolved in DMSO to prepare a 200 μM working solution and added to the system solution at the time of testing to form a solution with a final concentration of 1 μM.
The microsomes were stored in a −80° C. freezer.
Preparation of incubation system: an incubation system was prepared as described in the table below.
25 μL, of NADPH or phosphate buffered saline was transferred to the incubation system described above, and 2 μL, of 200 μM of the test compound or verapamil was added. The sample with NADPH added was prepared in duplicate; the NADPH negative sample was prepared in single parallel. 30 μL, of suspension was taken at 0.5, 5, 15, 30 and 60 minutes. The reaction system was terminated by adding 180 μL, of acetonitrile containing an internal standard and vortexed for 10 min. […] 100 μL, of the supernatant was transferred to a feeding plate, and 100 μL, of purified water was added. The mixture was well mixed for UPLC-MS/MS analysis.
The results based on the data were obtained by calculation according to the peak area ratio, and the peak area was detected through an extracted ion chromatogram.
The slope value (k) was determined by linear fitting of the natural logarithm of drug elimination percentage over time.

Series [2] concerns the target T1, KRAS G12C protein (Homo sapiens, UniProt P01116, G12C).
T1 construct: H358 cells (ATCC, CRL-5807) expressing KRAS G12C protein; host or cells: H358 (NCI-H358) cells
Description: ERK protein phosphorylation assay (p-ERK) in H358 cells. It is filed as cell-based. Details: scale not given here. To be noted: H358 cells expressing KRAS G12C protein, 3 h incubation with compound; read-out: IC50, inhibiting phosphorylation of KRAS G12C protein-mediated downstream signaling (p-ERK). On the procedure: The cells were cultured in a 5% CO2 cell incubator for 16 h. The serially diluted compound was added to the cell medium with Echo550 at a final DMSO concentration of 0.5%, and the incubation was continued for 3 h. Then 8% paraformaldehyde (Solarbio, P1112) was added at 40 μL/well, followed by incubation at room temperature for 20 min. After one washing with PBS, cold 100% methanol was added at 40 μL/well for permeabilization for 10 min. […] Washing with PBST was performed 3 times, with 2 min of incubation for each washing. […] Washing with PBST was performed 3 times, with 2 min of incubation for each washing. Finally, the cell culture plate was inverted and centrifuged at 1000 rpm for 1 min, after which fluorescence signals were read using Odyssey CLx.

Series [3] in a line: Stability test in human plasma.
Description: To examine the stability of the test compounds in plasma, representative compounds were selected for evaluation.
Preparation of stock solution: a test compound was dissolved in DMSO to prepare a 1 mM stock solution for later use; Propantheline Bromide was dissolved in acetonitrile to prepare a 1 mM stock solution as a positive control for later use.
To each well was added 2 μL of the stock solution of the test compound and the stock solution of the positive control such that the final concentrations were 5 KM and the concentration of the organic solvent was 0.5%. Each compound was prepared in duplicate, followed by incubation at 37° C. 50 μL of samples were taken from the reaction samples in equal amounts at 0, 30, 60, 120, 180 and 240 minutes, and 450 μL of cold acetonitrile containing an internal standard was added to terminate the reaction. […] 100 μL of the supernatants were transferred to a new plate, dilute with ultra-pure water, and analyzed by LC-MS/MS.
Data results were calculated according to peak area ratios.
The percentage of remaining compound for each time point was calculated as follows:
Remaining percentagemin(%)=peak area ratiosmin/peak area ratiomin×100%
where peak area ratios represents the peak area ratio of the test compound to the internal standard compound at t min; peak area ratiomin represents the peak area ratio of the test compound to the internal standard compound at 0 min (initial).

Structures are written as SMILES. Bounds are passed on as bounds.

T1 sequence (P01116 1-188 isoform P01116-2 G12C): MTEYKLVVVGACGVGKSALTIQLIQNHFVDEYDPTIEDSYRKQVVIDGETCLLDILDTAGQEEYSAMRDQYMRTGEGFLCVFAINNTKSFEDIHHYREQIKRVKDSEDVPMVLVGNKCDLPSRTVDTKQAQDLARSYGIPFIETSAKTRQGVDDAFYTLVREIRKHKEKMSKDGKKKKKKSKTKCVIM

As to `C=C(F)C(=O)N1CCN(c2nc(OC[C@@H]3CCCN3C)nc3c2CCN(c2cccc4cccc(Cl)c24)C3)C[C@@H]1CC#N` [MRTX849, reference compound], in series [1] (ICR (CD-1), mouse), the half-life at 1 μM stood at 10 min and the microsomal CLint at 1 μM came out at 139 µL/min/mg. Besides, in series [1] (human), the half-life at 1 μM came to 19.8 min and the microsomal CLint at 1 μM was determined as 70.2 µL/min/mg.

In the case of `C=C(F)C(=O)N1CCN(c2nc(OC[C@@H]3CCCN3C)nc3c2CCN(c2cncc4cccc([14CH3])c24)C3)C[C@@H]1CC#N` [Compound 14, 2-((S)-1-(2-fluoroacryloyl)-4-(7-(5-(methyl-^14C)isoquinolin-4-yl)-2-(((S)-1-methylpyrrolidin-2-yl)methoxy)-5,6,7,8-tetrahydropyrido[3,4-d]pyrimidin-4-yl)piperazin-2-yl)acetonitrile], the IC50 in series [2] is below 1000 nM.

As for `[2H]C([2H])([2H])c1cccc2cccc(N3CCc4c(nc(OC[C@@H]5CCCN5C)nc4N4CCN(C(=O)C(=C)F)[C@@H](C)C4)C3)c12` [Compound 5, 2-fluoro-1-((S)-2-methyl-4-(7-(8-(methyl-d3)naphthalen-1-yl)-2-(((S)-1-methylpyrrolidin-2-yl)methoxy)-5,6,7,8-tetrahydropyrido[3,4-d]pyrimidin-4-yl)piperazin-1-yl)-2-propen-1-one], the IC50 in series [2] is below 1000 nM.

As to `C=CC(=O)N1CCN(c2nc(OC[C@@H]3CCCN3C)nc3c2CCN(c2cccc4cccc([13CH3])c24)C3)C[C@@H]1CC#N` [Compound 10, 2-((S)-1-acryloyl-4-(7-(8-(methyl-^13C)naphthalen-1-yl)-2-(((S)-1-methylpyrrolidin-2-yl)methoxy)-5,6,7,8-tetrahydropyrido[3,4-d]pyrimidin-4-yl)piperazin-2-yl)acetonitrile], the IC50 in series [2] is below 1000 nM.

Regarding `[2H]C([2H])([2H])c1cccc2cccc(N3CCc4c(nc(OC[C@@H]5CCCN5C)nc4N4CCN(C(=O)C=C)C[C@@H]4C)C3)c12` [Compound 8, 1-((S)-3-methyl-4-(7-(8-(methyl-d3)naphthalen-1-yl)-2-(((S)-1-methylpyrrolidin-2-yl)methoxy)-5,6,7,8-tetrahydropyrido[3,4-d]pyrimidin-4-yl)piperazin-1-yl)-2-propen-1-one], in series [2], the IC50 is below 1000 nM.

Turning to `C=CC(=O)N1CCN(c2nc(OC[C@@H]3CCCN3[14CH3])nc3c2CCN(c2cccc4cccc(C)c24)C3)C[C@@H]1CC#N` [Compound 39, 2-((S)-1-acryloyl-4-(2-(((S)-1-(methyl-^14C)pyrrolidin-2-yl)methoxy)-7-(8-methylnaphthalen-1-yl)-5,6,7,8-tetrahydropyrido[3,4-d]pyrimidin-4-yl)piperazin-2-yl)acetonitrile], the IC50 in series [2] is below 1000 nM.

`[2H]C([2H])([2H])C([2H])(N1CCC[C@H]1COc1nc2c(c(N3CCN(C(=O)C=C)[C@@H](CC#N)C3)n1)CCN(c1cccc3cccc(C)c13)C2)C([2H])([2H])[2H]` [Compound 37, 2-((S)-1-acryloyl-4-(7-(8-methylnaphthalen-1-yl)-2-(((S)-1-(isopropyl-d7)pyrrolidin-2-yl)methoxy)-5,6,7,8-tetrahydropyrido[3,4-d]pyrimidin-4-yl)piperazin-2-yl)acetonitrile]: the IC50 in series [2] was below 1000 nM.

Take `[2H]C([2H])([2H])C([2H])([2H])N1CCC[C@H]1COc1nc2c(c(N3CCN(C(=O)C=C)[C@@H](CC#N)C3)n1)CCN(c1cccc3cccc(Cl)c13)C2` [Compound 36, 2-((S)-1-acryloyl-4-(7-(8-chloronaphthalene-1-yl)-2-(((S)-1-(ethyl-d5)pyrrolidin-2-yl)methoxy)-5,6,7,8-tetrahydropyrido[3,4-d]pyrimidin-4-yl)piperazin-2-yl)acetonitrile]: in series [2], the IC50 is below 1000 nM.

For the compound `[2H]C([2H])([2H])N1CCC[C@H]1COc1nc2c(c(N3CCN(C(=O)C=C)[C@@H](CC#N)C3)n1)CCN(c1cncc3cccc([14CH3])c13)C2` [Compound 32, 2-((S)-1-acryloyl-4-(2-(((S)-1-(methyl-d3)pyrrolidine-2-yl)methoxy)-7-(5-(methyl-^14C)isoquinolin-4-yl)-5,6,7,8-tetrahydropyrido[3,4-d]pyrimidin-4-yl)piperazin-2-yl)acetonitrile], the IC50 in series [2] is below 1000 nM.

On to `C=CC(=O)N1CCN(c2nc(OC[C@@H]3CCCN3[11CH3])nc3c2CCN(c2cccc4cccc(C)c24)C3)C[C@@H]1CC#N` [Compound 25, 2-((S)-1-acryloyl-4-(2-(((S)-1-(methyl-^11C)pyrrolidin-2-yl)methoxy)-7-(8-methylnaphthalen-1-yl)-5,6,7,8-tetrahydropyrido[3,4-d]pyrimidin-4-yl)piperazin-2-yl)acetonitrile], for which the IC50 in series [2] is below 1000 nM.

In series [1] (ICR (CD-1), mouse), `[2H]C([2H])([2H])N1CCC[C@H]1COc1nc2c(c(N3CCN(C(=O)C(=C)F)[C@@H](CC#N)C3)n1)CCN(c1cccc3cccc(Cl)c13)C2` [Compound 18, 2-((S)-4-(7-(8-chloronaphthalen-1-yl)-2-(((S)-1-(methyl-d3)pyrrolidin-2-yl)methoxy)-5,6,7,8-tetrahydropyrido[3,4-d]pyrimidin-4-yl)-1-(2-fluoroacryloyl)piperazin-2-yl)acetonitrile] yielded a half-life at 1 μM of 12.3 min and a microsomal CLint at 1 μM of 113 µL/min/mg. For the same compound, in series [1] (human), the half-life at 1 μM was found to be 19.3 min and the microsomal CLint at 1 μM stood at 72 µL/min/mg.

Consider `C=C(F)C(=O)N1CCN(c2nc(OC[C@@H]3CCCN3C)nc3c2CCN(c2cccc4cccc([13CH3])c24)C3)C[C@@H]1CC#N` [Compound 11, 2-((S)-1-(2-fluoroacryloyl)-4-(7-(8-(methyl-^13C)naphthalen-1-yl)-2-(((S)-1-methylpyrrolidin-2-yl)methoxy)-5,6,7,8-tetrahydropyrido[3,4-d]pyrimidin-4-yl)piperazin-2-yl)acetonitrile], for which the IC50 in series [2] was below 1000 nM.

In the case of `[2H]C([2H])([2H])N1CCC[C@H]1COc1nc2c(c(N3CCN(C(=O)C=C)[C@@H](CC#N)C3)n1)CCN(c1cncc3cccc(C)c13)C2` [Compound 30, 2-((S)-1-acryloyl-4-(2-(((S)-1-(methyl-d3)pyrrolidin-2-yl)methoxy)-7-(5-methylisoquinolin-4-yl)-5,6,7,8-tetrahydropyrido[3,4-d]pyrimidin-4-yl)piperazin-2-yl)acetonitrile], the IC50 in series [2] was below 1000 nM.

As to `[2H]C([2H])([2H])N1CCC[C@H]1COc1nc2c(c(N3CCN(C(=O)/C=C/CNC4CC4)[C@@H](CC#N)C3)n1)CCN(c1cccc3cccc(C)c13)C2` [Compound 19, 2-((S)-1-((E)-4-(cyclopropylamino)-2-butenoyl)-4-(2-(((S)-1-(methyl-d3)pyrrolidin-2-yl)methoxy)-7-(8-methylnaphthalen-1-yl)-5,6,7,8-tetrahydropyrido[3,4-d]pyrimidin-4-yl)piperazin-2-yl)acetonitrile], the IC50 in series [2] was below 1000 nM.

Turning to `CC(C)[N+](C)(CCOC(=O)C1c2ccccc2Oc2ccccc21)C(C)C` [Propantheline Bromide, reference compound], the “Remaining percentage (%) 0 min” value in series [3] (human plasma, 37° C., 0 min) is on record as 100.00%. The “Remaining percentage (%) 30 min” value in series [3] (human plasma, 37° C., 30 min) was 33.35%. Also, in series [3] (human plasma, 37° C., 60 min), the “Remaining percentage (%) 60 min” value was found to be 7.71%. Further, in series [3] (human plasma, 37° C., 120 min), the “Remaining percentage (%) 120 min” value turned out to be 0.15%. Also, the “Remaining percentage (%) 180 min” value in series [3] (human plasma, 37° C., 180 min) is “BLOD”. The “Remaining percentage (%) 240 min” value in series [3] (human plasma, 37° C., 240 min) was “BLOD”. This compound also displayed a half-life at 5 μM in series [3] (human, plasma) of 19 min.

Consider `[2H]C([2H])([2H])N1CCC[C@H]1COc1nc2c(c(N3CCN(C(=O)C=C)[C@@H](CC#N)C3)n1)CCN(c1cncc3cccc([13CH3])c13)C2` [Compound 31, 2-((S)-1-acryloyl-4-(2-(((S)-1-(methyl-d3)pyrrolidine-2-yl)methoxy)-7-(5-(methyl-^13C)isoquinolin-4-yl)-5,6,7,8-tetrahydropyrido[3,4-d]pyrimidin-4-yl)piperazin-2-yl)acetonitrile], for which, in series [2], the IC50 is below 1000 nM.

On to `[2H]C([2H])([2H])c1cccc2cccc(N3CCc4c(nc(OC[C@@H]5CCCN5C)nc4N4CCN(C(=O)C(=C)F)C[C@@H]4C)C3)c12` [Compound 7, 2-fluoro-1-((S)-3-methyl-4-(7-(8-(methyl-d3)naphthalen-1-yl)-2-(((S)-1-methylpyrrolidin-2-yl)methoxy)-5,6,7,8-tetrahydropyrido[3,4-d]pyrimidin-4-yl)piperazin-1-yl)-2-propen-1-one], for which the IC50 in series [2] was below 1000 nM.
